Measurements taken from ChEMBL document CHEMBL1201862, “PubChem BioAssay data set” (2004).
Active and inactive are the calls of the source.

Experiments:
[1] = target: T1, Polyadenylate-binding protein 1 (Homo sapiens, UniProt P11940); test: PABP poly(A) RNA binding inhibitors, primary screen, biochemical, fluorescence polarization, uHTS (AID 2014)
[2] = target: Eukaryotic translation initiation factor 4H (Homo sapiens, UniProt Q15056); test: human eIF4H binding inhibitors, primary screen, translation initiation inhibitor project, biochemical, uHTS, fluorescence polarization (AID 2012)
[3] = target: T2, Endoribonuclease toxin MazF (Escherichia coli K-12, UniProt P0AE70); test: fluorescent RNA oligo signal without MazF, dose response, counter-screen for MazEF activator project, biochemical, fluorescence, single-stranded RNase substrate (AID 588502); format: functional
T2 sequence (P0AE70 whole entry): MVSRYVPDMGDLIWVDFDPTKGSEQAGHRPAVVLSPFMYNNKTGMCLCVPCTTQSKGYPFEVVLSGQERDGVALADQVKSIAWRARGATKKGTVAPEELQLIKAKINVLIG

Salmon testes DNA = test: DNA intercalators displacing acridine orange, dose response, artefact control for KSHV LANA DNA-binding inhibitor project, biochemical, fluorescence polarization, cherry-picked samples, set 2 (AID 504727); set-up: species or system Salmonidae
[4] = target: T2, Endoribonuclease toxin MazF; test: MazF toxin RNase activators, dose response, biochemical, fluorescence, single-stranded RNA substrate, uHTS hits (AID 588481); format: functional
HeLa = test: HeLa cell cytotoxicity, dose response, cytotoxicity control, 24 h, cherry-picked samples (AID 504726); format: functional, cell-based; conditions: Homo sapiens;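 note: potency for cytotoxicity as loss of luminescence signal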
ORF 73 = target: T3, ORF 73 (Human herpesvirus 8, UniProt O40947); test: inhibitors of C-LANA binding to LBS DNA, dose response, biochemical, fluorescence polarization, cherry-picked samples (AID 504725); set-up: species or system Human gammaherpesvirus 8;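 note: fluorescence polarization of a labeled DNA duplex reporting LANA DNA binding; potency is for inhibitors that block LANA binding to the DNA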
T3 sequence (O40947 whole entry): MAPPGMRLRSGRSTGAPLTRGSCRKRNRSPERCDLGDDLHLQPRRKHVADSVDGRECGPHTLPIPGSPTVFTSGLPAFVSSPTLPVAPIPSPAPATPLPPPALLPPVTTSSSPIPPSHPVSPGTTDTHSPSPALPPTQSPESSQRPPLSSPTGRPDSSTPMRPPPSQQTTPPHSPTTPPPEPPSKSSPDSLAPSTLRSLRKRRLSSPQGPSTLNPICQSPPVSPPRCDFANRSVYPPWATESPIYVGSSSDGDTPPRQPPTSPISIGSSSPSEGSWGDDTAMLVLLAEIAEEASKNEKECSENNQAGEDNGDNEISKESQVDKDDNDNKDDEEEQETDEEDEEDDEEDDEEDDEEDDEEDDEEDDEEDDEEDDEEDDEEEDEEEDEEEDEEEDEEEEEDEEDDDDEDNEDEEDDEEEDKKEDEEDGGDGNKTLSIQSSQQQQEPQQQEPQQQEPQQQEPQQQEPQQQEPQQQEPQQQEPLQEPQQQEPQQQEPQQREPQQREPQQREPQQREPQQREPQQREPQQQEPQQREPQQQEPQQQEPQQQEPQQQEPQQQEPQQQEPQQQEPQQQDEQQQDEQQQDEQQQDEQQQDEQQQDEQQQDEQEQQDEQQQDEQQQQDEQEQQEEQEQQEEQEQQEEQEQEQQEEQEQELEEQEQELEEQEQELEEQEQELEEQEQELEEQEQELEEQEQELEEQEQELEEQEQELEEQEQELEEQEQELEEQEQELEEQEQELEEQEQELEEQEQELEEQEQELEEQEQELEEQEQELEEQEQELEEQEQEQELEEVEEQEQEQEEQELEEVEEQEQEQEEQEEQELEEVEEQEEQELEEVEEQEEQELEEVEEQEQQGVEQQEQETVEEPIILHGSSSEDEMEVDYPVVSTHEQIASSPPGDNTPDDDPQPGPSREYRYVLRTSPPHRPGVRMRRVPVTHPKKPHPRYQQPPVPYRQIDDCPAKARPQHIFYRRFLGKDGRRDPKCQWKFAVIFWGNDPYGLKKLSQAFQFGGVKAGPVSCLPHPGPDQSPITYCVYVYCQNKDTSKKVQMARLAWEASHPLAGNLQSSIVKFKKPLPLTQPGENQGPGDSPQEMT

[5] = target: G2/mitotic-specific cyclin-B1 (Homo sapiens, UniProt P14635); test: G2/M cell cycle arrest in HeLa, late-stage follow-up, mechanism study for Wee1 degradation inhibitor project, FACS, panel member Cyclin B Degradation (AID 2088)
Wee1-like protein kinase = Wee1-like protein kinase (Homo sapiens, UniProt P30291); test: G2/M cell cycle arrest in HeLa, late-stage follow-up, mechanism study for Wee1 degradation inhibitor project, FACS, panel member Wee1 Degradation (AID 2088)
[6] = target: T1, Polyadenylate-binding protein 1; test: PABP1 MLLE–PAM2 interaction inhibitors, dose response, miRNA deadenylation inhibitor project, biochemical, fluorescence polarization, Cy5-PAM2 peptide, secondary (AID 602260); format: functional; conditions: read-out: IC50_Mean
[7] = target: Photoreceptor-specific nuclear receptor (Homo sapiens, UniProt Q9Y5X4); format: functional;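 note: potency for compounds that break the NR2E3 corepressor complex and count as activators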
[8] = target: Peroxisome proliferator-activated receptor gamma/Nuclear receptor corepressor 2 (Homo sapiens, UniProt P37231+Q9Y618); format: functional
[9] = target: T1, Polyadenylate-binding protein 1; test: PABP1 MLLE–PAM2 binding inhibitor potency, dose response, biochemical, fluorescence polarization, FITC-PAM2 peptide (AID 602259); format: functional; conditions: read-out: IC50_Mean
[10] = target: Dual specificity tyrosine-phosphorylation-regulated kinase 1A (Rattus norvegicus, UniProt Q63470); format: biochemical, Homo sapiens
[11] = target: Cyclin-dependent kinase 5/CDK5 activator 1 (Homo sapiens, UniProt Q00535); test: CDK5/p35 kinase inhibitors, dose response, biochemical, cherry-picked samples, set 2 (AID 504545)
[12] = target: Heat shock protein HSP 90-alpha (Homo sapiens, UniProt P07900); format: functional, organism-based
[13] = target: Dual specificity protein phosphatase 3 (Homo sapiens, UniProt P51452); test: VHR1 inhibitor Ki determination, SAR follow-up, biochemical, colorimetric (AID 2004)

T1 sequence (P11940 whole entry): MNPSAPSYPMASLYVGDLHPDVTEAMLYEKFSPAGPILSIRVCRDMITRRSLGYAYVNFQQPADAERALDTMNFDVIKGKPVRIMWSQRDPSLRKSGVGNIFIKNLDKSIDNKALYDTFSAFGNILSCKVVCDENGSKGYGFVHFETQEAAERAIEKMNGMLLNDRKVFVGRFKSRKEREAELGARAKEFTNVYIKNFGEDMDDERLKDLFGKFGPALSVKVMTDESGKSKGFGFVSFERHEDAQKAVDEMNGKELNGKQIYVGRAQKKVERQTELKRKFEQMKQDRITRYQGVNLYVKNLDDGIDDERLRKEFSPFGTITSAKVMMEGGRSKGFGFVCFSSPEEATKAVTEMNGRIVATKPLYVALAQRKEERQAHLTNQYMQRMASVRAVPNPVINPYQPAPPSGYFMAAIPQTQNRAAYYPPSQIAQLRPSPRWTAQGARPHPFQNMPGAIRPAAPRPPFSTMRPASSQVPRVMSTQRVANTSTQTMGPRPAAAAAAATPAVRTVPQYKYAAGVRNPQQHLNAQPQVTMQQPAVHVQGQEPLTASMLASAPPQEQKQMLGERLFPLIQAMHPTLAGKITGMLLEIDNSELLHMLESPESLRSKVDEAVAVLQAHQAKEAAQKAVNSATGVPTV
Sequence of Wee1-like protein kinase (P30291 whole entry): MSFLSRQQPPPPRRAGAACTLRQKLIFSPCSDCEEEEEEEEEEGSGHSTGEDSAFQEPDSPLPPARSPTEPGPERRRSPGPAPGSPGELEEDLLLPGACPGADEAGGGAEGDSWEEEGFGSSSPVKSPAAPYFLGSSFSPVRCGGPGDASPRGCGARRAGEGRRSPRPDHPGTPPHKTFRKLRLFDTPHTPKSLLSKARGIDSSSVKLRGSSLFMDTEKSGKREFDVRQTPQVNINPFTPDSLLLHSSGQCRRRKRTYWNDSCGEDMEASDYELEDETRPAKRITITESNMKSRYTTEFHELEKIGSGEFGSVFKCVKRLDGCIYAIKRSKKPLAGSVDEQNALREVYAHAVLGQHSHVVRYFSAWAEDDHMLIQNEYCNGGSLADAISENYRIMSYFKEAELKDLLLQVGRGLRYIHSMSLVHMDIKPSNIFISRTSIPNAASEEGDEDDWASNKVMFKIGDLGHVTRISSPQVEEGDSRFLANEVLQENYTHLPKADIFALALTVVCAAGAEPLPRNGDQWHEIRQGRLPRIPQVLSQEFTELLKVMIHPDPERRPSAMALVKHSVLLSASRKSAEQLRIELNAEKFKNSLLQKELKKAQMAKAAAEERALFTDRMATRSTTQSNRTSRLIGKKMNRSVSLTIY
Sequence of G2/mitotic-specific cyclin-B1 (P14635 whole entry): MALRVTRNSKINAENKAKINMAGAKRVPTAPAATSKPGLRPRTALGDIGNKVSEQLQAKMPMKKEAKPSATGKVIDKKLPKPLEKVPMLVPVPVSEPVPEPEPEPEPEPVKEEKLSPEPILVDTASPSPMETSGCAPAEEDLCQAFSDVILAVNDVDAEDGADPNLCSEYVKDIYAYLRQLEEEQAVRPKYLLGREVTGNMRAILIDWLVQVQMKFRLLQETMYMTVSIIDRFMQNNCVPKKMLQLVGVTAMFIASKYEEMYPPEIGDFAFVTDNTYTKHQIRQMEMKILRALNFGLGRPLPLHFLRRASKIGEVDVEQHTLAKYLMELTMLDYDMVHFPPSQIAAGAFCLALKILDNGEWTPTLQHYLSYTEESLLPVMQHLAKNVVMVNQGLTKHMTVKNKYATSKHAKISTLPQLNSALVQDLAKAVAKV
Sequence of Peroxisome proliferator-activated receptor gamma/Nuclear receptor corepressor 2 (P37231 whole entry): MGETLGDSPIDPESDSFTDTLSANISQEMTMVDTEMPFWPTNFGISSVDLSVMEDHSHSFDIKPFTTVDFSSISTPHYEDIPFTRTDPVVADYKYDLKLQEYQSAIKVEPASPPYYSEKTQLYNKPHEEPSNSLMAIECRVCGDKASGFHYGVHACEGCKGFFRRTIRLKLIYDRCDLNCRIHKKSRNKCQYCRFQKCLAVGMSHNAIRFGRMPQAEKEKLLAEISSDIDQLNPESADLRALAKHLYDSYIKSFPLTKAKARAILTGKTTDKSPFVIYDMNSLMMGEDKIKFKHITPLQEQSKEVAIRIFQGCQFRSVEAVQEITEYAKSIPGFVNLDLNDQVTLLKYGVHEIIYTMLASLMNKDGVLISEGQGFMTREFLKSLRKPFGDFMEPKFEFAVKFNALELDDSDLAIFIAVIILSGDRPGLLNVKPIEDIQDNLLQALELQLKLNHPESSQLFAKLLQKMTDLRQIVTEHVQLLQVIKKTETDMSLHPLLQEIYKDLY
Sequence of Peroxisome proliferator-activated receptor gamma/Nuclear receptor corepressor 2 (Q9Y618 whole entry): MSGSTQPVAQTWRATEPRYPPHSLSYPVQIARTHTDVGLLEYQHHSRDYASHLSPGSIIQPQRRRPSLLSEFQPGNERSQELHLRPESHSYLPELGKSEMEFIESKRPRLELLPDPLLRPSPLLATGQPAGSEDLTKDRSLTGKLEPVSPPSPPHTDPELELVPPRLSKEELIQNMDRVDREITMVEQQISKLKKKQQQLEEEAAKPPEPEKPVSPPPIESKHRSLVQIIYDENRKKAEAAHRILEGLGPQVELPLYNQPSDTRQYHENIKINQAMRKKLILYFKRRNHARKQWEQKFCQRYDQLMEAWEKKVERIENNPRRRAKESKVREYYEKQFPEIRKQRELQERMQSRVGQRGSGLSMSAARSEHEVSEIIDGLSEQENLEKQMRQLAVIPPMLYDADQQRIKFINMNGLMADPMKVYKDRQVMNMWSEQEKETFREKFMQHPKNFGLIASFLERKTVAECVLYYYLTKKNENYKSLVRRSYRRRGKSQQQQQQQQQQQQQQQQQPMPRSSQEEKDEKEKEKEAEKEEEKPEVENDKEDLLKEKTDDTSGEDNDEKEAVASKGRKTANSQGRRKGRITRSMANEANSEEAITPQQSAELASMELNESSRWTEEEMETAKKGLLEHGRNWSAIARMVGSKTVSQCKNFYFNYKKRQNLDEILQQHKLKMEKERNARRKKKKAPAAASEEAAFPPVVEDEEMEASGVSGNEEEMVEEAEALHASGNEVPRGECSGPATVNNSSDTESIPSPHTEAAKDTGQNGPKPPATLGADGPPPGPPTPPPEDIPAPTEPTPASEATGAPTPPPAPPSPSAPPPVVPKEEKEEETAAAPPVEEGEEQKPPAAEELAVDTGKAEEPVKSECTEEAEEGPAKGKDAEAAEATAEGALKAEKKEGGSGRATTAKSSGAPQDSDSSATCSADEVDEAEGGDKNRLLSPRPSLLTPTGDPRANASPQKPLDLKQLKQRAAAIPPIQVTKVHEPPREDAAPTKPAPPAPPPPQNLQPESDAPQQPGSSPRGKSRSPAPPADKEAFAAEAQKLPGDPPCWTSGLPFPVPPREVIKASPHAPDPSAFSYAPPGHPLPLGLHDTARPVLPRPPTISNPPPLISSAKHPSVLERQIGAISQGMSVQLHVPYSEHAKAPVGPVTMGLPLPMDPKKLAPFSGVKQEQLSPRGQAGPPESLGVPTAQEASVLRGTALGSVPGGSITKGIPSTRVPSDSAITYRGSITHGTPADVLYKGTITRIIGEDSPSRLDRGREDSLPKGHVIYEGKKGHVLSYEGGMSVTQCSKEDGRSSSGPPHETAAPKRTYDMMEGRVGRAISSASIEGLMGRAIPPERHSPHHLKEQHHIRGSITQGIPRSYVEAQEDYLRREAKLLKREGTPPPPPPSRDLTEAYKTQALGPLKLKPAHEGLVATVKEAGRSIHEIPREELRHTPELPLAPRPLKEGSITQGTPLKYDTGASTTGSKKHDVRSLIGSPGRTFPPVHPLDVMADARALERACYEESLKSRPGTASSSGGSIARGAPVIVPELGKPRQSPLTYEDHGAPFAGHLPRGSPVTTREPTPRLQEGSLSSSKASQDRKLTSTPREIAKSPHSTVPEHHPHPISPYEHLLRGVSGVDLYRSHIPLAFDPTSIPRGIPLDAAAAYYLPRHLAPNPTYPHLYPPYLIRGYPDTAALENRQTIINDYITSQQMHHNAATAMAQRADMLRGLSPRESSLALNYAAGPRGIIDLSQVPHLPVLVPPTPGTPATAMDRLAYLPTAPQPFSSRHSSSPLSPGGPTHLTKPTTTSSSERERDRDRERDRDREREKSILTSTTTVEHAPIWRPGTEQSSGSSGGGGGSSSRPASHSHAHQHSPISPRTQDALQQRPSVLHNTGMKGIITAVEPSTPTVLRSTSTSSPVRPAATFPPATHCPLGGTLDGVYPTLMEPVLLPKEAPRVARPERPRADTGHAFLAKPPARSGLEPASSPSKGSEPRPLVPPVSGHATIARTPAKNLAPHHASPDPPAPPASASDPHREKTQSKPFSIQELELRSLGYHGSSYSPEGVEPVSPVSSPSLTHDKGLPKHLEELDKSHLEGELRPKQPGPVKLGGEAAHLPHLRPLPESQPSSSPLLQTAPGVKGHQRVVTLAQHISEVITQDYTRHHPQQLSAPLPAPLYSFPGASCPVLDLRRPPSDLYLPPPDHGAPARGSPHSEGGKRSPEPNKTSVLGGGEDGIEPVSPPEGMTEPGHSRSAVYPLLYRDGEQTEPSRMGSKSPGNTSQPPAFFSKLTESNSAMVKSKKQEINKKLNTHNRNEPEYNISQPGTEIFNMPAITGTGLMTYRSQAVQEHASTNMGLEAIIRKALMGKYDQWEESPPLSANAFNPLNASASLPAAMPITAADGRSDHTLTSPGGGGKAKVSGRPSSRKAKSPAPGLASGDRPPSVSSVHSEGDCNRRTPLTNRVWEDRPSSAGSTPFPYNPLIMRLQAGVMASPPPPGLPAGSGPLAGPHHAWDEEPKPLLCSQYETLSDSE

Compound: CN(C)CCNc1c2c(nc3ccccc13)CCC2
- IC50 [1]: 32.8 µM (active)
- IC50 [2]: 99.1 µM (active)

Compound: COc1ccc(-c2cc(C(F)(F)F)c3c(N)c(C(=O)NCCSC)sc3n2)cc1
- EC50 [3]: 61.6 µM (inactive)
- AC50 (Salmon testes DNA): 58.9 µM (active)
- EC50 [4]: > 99 µM (inactive)
- AC50 (HeLa): 45.9 µM (active)
- AC50 (ORF 73): 34.5 µM (active)

Compound: CCc1cccc(NC(=O)CCCOc2cc(=O)n(C)c3ccccc23)c1
- EC50 [5]: > 49.7 µM (inactive)
- EC50 (Wee1-like protein kinase): > 49.7 µM (inactive)

Compound: COc1cccc(NC(=S)Nc2cc(C)cc(C)n2)c1
- IC50 [6]: > 66 µM (inactive)
- IC50 [7]: 2.04 µM (active)
- IC50 [8]: 1.61 µM (active)
- IC50 [9]: > 66 µM (inactive)

Compound: Nc1cc2c(cc1[N+](=O)[O-])-c1ccccc1C2=NO
- AC50 [10]: 0.143 µM (active)
- AC50 [11]: 41.2 µM (active)
- AC50 [12]: 8.8 µM (active)

Compound: CCOC(=O)c1sc(N/N=C/c2cccc(O)c2)nc1C
- Ki [13]: 120 µM (inactive)
